Tests used:
[1] = Binding affinity to biotin labeled hairpin DNA 5'-GAATTC-3' (unknown origin) assessed as equilibrium dissociation constant by sensor chip immobilization based surface plasmon resonance analysis
[2] = Binding affinity to biotin labeled hairpin DNA 5'-GAATTC-3' (unknown origin) assessed as association constant by sensor chip immobilization based surface plasmon resonance analysis
[3] = Binding affinity to biotin labeled hairpin DNA 5'-GAATTC-3' (unknown origin) assessed as dissociation rate constant by sensor chip immobilization based surface plasmon resonance analysis
[4] = Inhibition of PU.1 binding to biotin labeled lambdaB DNA (unknown origin) by sensor chip immobilization based surface plasmon resonance analysis
[5] = Binding affinity to biotin labeled hairpin DNA 5'-GAATTC-3' (unknown origin) assessed as equilibrium binding constant by sensor chip immobilization based surface plasmon resonance analysis

Structure (SMILES) | Kd [1] | Ka [2] | Kd [3] | IC50 [4] | KA [5]
N=C(N)c1ccc(-c2ccc(-c3cc4ccc(C(=N)N)cc4[nH]3)s2)cc1 | 6.5 nM | 4.5 10^5/M/s | 2.9 10^-3/s | 23 nM | –
N=C(N)c1ccc(-c2ccc(-c3nc4ccc(C(=N)N)cc4[nH]3)s2)cc1 | 1.5 nM | 5.8 10^6/M/s | 8.9 10^-3/s | 9 nM | 6.6 10^8/M
N=C(N)c1ccc(-c2ccc(-c3ccc(C(=N)N)cc3)o2)cc1 [FURAMIDINE] | 140 nM | – | – | – | –

Reference: ChEMBL document CHEMBL5126589, “Drug design and DNA structural research inspired by the Neidle laboratory: DNA minor groove binding and transcription factor inhibition by thiophene diamidines” (Bioorg Med Chem, 2022)
